Laboratory results from patent US20160355684A1, “ANTHRAQUINONE DYE USED FOR A COLOR FILTER OF A LCD” (DOW GLOBAL TECHNOLOGIES LLC, priority 2014, published 2016).

Tests used:
Assay type in all cases: physicochemical
[1] = Thermal stability of films (chromaticity difference ΔEab after baking); details: for ΔEab after baking at 230° C. for 1 h: film of dye in alkaline soluble acrylic resin on glass, hard bake 230° C., air, smaller value = better heat resistance
Method: 0.15 g of Dye 1, 1.35 g PGMEA and 1.00 g of alkaline soluble acrylic resin solution (MIPHOTO RPR4022, supplied from Miwan Commercial Co., Ltd., 25 to 35% of solid content in (methyl 3-methoxypropionate)) were mixed and stirred for overnight at room temperature using a shaker. The solution was filtered with a 0.45 μm Acrodisc CR PTFE filter to get rid of big particles. Then the filtered solution was spin coated onto a clean glass substrate with 400 rpm spin speed for 18 seconds. The obtained film was first dried at 90° C. under air atmosphere for 30 minutes, and then hard baked at 230° C. under air atmosphere for 1 hour. The CIE values (xyY values and lab values) and the UV-Vis were measured before and after the hard bake.
The obtained dry film was further baked at 230° C. under air for 1 hour to evaluate thermal stability of the film. Optical performance after baking (ΔEab value) was 1.8, and the one of after further baking was 2.7. A smaller ΔEab value indicates better heat resistance.
(4) Thermal Stability of Films (Chromaticity):
The wet film after spin coating is dried in oven at 90° C. for 30 minutes and then soft baked at 150° C. for 15 minutes. The chromaticity coordinates (L, a, b) are recorded with UltraScan Pro (Hunterlab) colorimeter. D65/10 light source is used and results are based on CIE Lab coordinates. After that the film is hard baked at target temperature (230° C.) for 1 hour and the new chromaticity coordinates (L′, a′, b′) are recorded with the method above. The thermal stability of a film is indicated by the difference of chromaticity coordinate after baking at 230° C. represented by the following formula;
ΔE=√{square root over ((L−L′)^2+(a−a′)^2+(b−b′)^2)}

[2] = Solubility of dye in PGMEA; details: solvent PGMEA (propylene glycol monomethyl ether acetate)
[3] = Thermal stability of dyes (mass loss measured by TGA); details: dye itself
Method: (1) Thermal Stability of Dyes (Mass Loss Measured by TGA):
The thermal stability of dye itself was determined by the mass loss of dye measured by TGA under air atmosphere at 230° C. for 1 hour. This evaluation reflects chemical stability of the dye itself.

Row | SMILES | ΔEab after baking at 230° C. for 1 h [1] | Solubility in PGMEA (wt %) [2] [wt %] | weight loss at 230° C. for 1 h in air from TGA [3] [%] | Optical performance after baking (ΔEab value) ([1]; Dye 1 film, after baking) | ΔEab value after further baking ([1]; Dye 1 film, further baked at 230° C. under air for 1 hour)
1 | Cc1cc(C)c(Nc2ccc(Nc3c(C)cc(C)cc3C)c3c2C(=O)c2ccccc2C3=O)c(C)c1 [Solvent Blue 104, 1,4-bis(mesitylamino)anthraquinone, reference compound] | 7.0 | 0.6 |  |  | 
2 | Cc1cc(OCCC[Si](C)(O[Si](C)(C)C)O[Si](C)(C)C)cc(C)c1Nc1ccc(Nc2c(C)cc(OCCC[Si](C)(O[Si](C)(C)C)O[Si](C)(C)C)cc2C)c2c1C(=O)c1ccccc1C2=O [Dye 1] | 3.2 | 17 | 7.74 | 1.8 | 2.7
3 | CC(C)Nc1ccc(NC(C)C)c2c1C(=O)c1ccccc1C2=O [Solvent Blue 36, reference compound] | 33 (color almost | 1.92 |  |  | 
4 | Cc1cc(C)c(Nc2ccc(Nc3c(C)cc(OCCC[Si](C)(C)O[Si](C)(C)O[Si](C)(C)CCCOc4cc(C)c(Nc5ccc(Nc6c(C)cc(C)cc6C)c6c5C(=O)c5ccccc5C6=O)c(C)c4)cc3C)c3c2C(=O)c2ccccc2C3=O)c(C)c1 [Dye 3] | 1.5 | 9.7 |  |  | 
5 | CC(C[Si](C)(O[Si](C)(C)C)O[Si](C)(C)C)C(=O)OCCNc1ccc(NCCOC(=O)C(C)C[Si](C)(O[Si](C)(C)C)O[Si](C)(C)C)c2c1C(=O)c1ccccc1C2=O (centres unmarked) [(QS), reference compound] | 24.5 (color changed | ~4.6 |  |  | 
6 | Cc1cc(C)c(Nc2ccc(Nc3c(C)cc(OCCC[Si](C)(C)O[Si](C)(C)O[Si](C)(C)CCCOc4cc(C)c(Nc5ccc(Nc6c(C)cc(C)cc6C)c6c5C(=O)c5ccccc5C6=O)c(C)c4)cc3C)c3c2C(=O)c2ccccc2C3=O)c(C)c1 [Dye 2] |  |  | 2.49 |  | 
7 | Cc1cc(C)c(Nc2ccc(Nc3c(C)cc(OCCC[Si](C)(O[Si](C)(C)C)O[Si](C)(CCCOc4cc(C)c(Nc5ccc(Nc6c(C)cc(C)cc6C)c6c5C(=O)c5ccccc5C6=O)c(C)c4)O[Si](C)(C)C)cc3C)c3c2C(=O)c2ccccc2C3=O)c(C)c1 (centres unmarked) [Dye 2] | 3.6 | 11.0 | 6.79 |  | 
